Assay results from patent US7439027B2, “Method for modulating process mediated by farnesoid activated receptors” (The Salk Institute for Biological Studies, priority 1995, dated 2008).
Each block holds one compound with its values, some of them ahead of it.

Key:
[1] = biological target: T1, FAR-RXRα complex (rat FAR and human RXRα) (Rattus norvegicus, UniProt Q62735, D356M/DEL339-355/E357R/INS337LPDTQTCWKKEFERAAS); experiment: hsp27-EcRE×5 MTV-luciferase reporter cotransfection in CV-1 cells expressing FAR and RXRα; format: cell-based; conditions: for activation of FAR-RXRα complex, hsp27 EcRE reporter: FIG. 5C
T1 construct: expressed in transfected cells; host or cells: CV-1 cells, CMV-driven expression vectors
T1 sequence (Q62735 1-469): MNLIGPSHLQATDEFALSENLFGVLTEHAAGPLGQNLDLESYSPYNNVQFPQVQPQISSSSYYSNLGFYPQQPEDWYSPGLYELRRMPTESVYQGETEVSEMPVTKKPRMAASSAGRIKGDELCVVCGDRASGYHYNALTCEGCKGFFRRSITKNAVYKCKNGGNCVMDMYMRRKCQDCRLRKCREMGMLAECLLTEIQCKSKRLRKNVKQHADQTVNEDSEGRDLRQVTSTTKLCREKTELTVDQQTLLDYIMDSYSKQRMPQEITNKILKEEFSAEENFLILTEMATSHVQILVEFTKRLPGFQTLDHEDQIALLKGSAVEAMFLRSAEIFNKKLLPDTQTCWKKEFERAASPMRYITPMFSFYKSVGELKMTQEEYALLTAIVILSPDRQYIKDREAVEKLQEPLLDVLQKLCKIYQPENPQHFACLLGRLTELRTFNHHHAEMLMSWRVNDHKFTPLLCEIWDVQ
T1 sequence (P19793 1-462 partner): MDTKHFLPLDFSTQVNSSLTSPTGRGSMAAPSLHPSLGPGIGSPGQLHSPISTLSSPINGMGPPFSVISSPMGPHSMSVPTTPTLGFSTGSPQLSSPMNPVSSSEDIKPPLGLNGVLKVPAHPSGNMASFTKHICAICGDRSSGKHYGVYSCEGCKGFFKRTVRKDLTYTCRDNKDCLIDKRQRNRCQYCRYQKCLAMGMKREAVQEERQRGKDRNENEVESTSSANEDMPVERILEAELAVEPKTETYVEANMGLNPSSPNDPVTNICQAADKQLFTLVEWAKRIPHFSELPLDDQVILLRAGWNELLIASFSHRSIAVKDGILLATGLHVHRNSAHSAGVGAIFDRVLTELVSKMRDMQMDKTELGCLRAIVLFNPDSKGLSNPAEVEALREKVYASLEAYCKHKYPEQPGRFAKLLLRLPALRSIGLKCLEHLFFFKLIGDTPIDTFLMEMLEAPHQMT
Method: Thus, CV-1 cells were grown in DMEM supplemented with 10% AG1-X8 resin-charcoal stripped calf bovine serum, 50 U/ml penicillin G and 50 μg/ml streptomycin sulfate (DMEM-CBS) at 37° C. in 5% CO2. One day prior to transfection, cells were plated to 50-80% confluence using phenol-red free DMEM with 10% resin charcoal stripped fetal bovine serum (DMEM-FBS). Cells were transfected (with reporter construct (300 ng/10^5 cells), cytomegalovirus driven receptor (100 ng/10^5 cells) and β-galactosidase expression vectors (500 ng/10^5 cells) as indicated in FIG. 4) by lipofection using N-{2-(2,3)-dioleoyloxy)propyl-N,N,N-trimethyl ammonium methyl sulfate} according to the manufacturer's instructions (DOTAP, Boehringer Mannheim). […] Cells were harvested and assayed for luciferase and β-galactosidase activity. […] Data points were normalized for differences in transfection efficiency using β-galactosidase, and plotted as relative activity where the untreated reporter is defined to have an activity of 1 unit.
(§1) Based on the identification of an EcRE as a DNA target, a reporter plasmid was constructed containing 5 copies of the hsp27 response element linked to a truncated mouse mammary tumor virus promoter (Yao et al., Nature 366:476-479 (1993)). This reporter was cotransfected into CV-1 cells alone, or with expression vectors for FAR and/or RXRα. Cotransfected cells were treated with a variety of potential ligands and monitored for changes in luciferase activity.
Thus, with reference to FIG. 5A, CV-1 cells were transiently transfected with hsp27-EcRE×5 MTV-luciferase alone (−) or with expression vectors for rat FAR and/or human RXRα. Reporter activity was assayed after treating cells with or without 50 μM JH III.
CV-1 cells were transiently transfected as described above with reference to FIG. 5A, but treated with or without 50 μM JH III, 100 nM LG69 and JH III+LG69.
Thus, CV-1 cells were transiently transfected with expression vectors for rat FR and human RXRα, as described above in Example 3. […] Data is plotted in FIG. 6A as fold activation relative to untreated cells.

[2] = biological target: T2, rat FAR (Rattus norvegicus, UniProt Q62735, D356M/DEL339-355/E357R/INS337LPDTQTCWKKEFERAAS); experiment: hsp27-EcRE×5 MTV-luciferase reporter in CV-1 cells expressing FAR alone; format: cell-based; conditions: 50 μM JH III; FIG. 5A
T2 construct: expressed in transfected cells; host or cells: CV-1 cells, CMV-driven expression vector
T2 sequence (Q62735 1-469 INS337LPDTQTCWKKEFERAAS/DEL339-355/D356M/E357R): T1 sequence (Q62735 1-469)
Method: Thus, CV-1 cells were grown in DMEM supplemented with 10% AG1-X8 resin-charcoal stripped calf bovine serum, 50 U/ml penicillin G and 50 μg/ml streptomycin sulfate (DMEM-CBS) at 37° C. in 5% CO2. One day prior to transfection, cells were plated to 50-80% confluence using phenol-red free DMEM with 10% resin charcoal stripped fetal bovine serum (DMEM-FBS). Cells were transfected (with reporter construct (300 ng/10^5 cells), cytomegalovirus driven receptor (100 ng/10^5 cells) and β-galactosidase expression vectors (500 ng/10^5 cells) as indicated in FIG. 4) by lipofection using N-{2-(2,3)-dioleoyloxy)propyl-N,N,N-trimethyl ammonium methyl sulfate} according to the manufacturer's instructions (DOTAP, Boehringer Mannheim). […] Cells were harvested and assayed for luciferase and β-galactosidase activity. All points were performed in triplicate and varied by less than 10%. Experiments were repeated three or more time with similar results. […]
as §1, with “This reporter was cotransfected into CV-1 cells alone, or with expression vectors for FAR and/or RXRα.” left out, “activity. […]” for “activity.”

[3] = biological target: T3, human RXRα (Homo sapiens, UniProt P19793); experiment: luciferase reporter in CV-1 cells expressing RXRα alone (hsp27-EcRE×5 MTV; CRBPII-TK); format: cell-based; conditions: 50 μM JH III; FIGS. 5A and 5B
T3 construct: expressed in transfected cells; host or cells: CV-1 cells, CMV-driven expression vector
T3 sequence (P19793 1-462): T1 sequence (P19793 1-462 partner)
Method: (§2) Thus, CV-1 cells were grown in DMEM supplemented with 10% AG1-X8 resin-charcoal stripped calf bovine serum, 50 U/ml penicillin G and 50 μg/ml streptomycin sulfate (DMEM-CBS) at 37° C. in 5% CO2. One day prior to transfection, cells were plated to 50-80% confluence using phenol-red free DMEM with 10% resin charcoal stripped fetal bovine serum (DMEM-FBS). Cells were transfected (with reporter construct (300 ng/10^5 cells), cytomegalovirus driven receptor (100 ng/10^5 cells) and β-galactosidase expression vectors (500 ng/10^5 cells) as indicated in FIG. 4) by lipofection using N-{2-(2,3)-dioleoyloxy)propyl-N,N,N-trimethyl ammonium methyl sulfate} according to the manufacturer's instructions (DOTAP, Boehringer Mannheim). […] Cells were harvested and assayed for luciferase and β-galactosidase activity. All points were performed in triplicate and varied by less than 10%. Experiments were repeated three or more time with similar results. Data points were normalized for differences in transfection efficiency using β-galactosidase, and plotted as relative activity where the untreated reporter is defined to have an activity of 1 unit.
Thus, with reference to FIG. 5A, CV-1 cells were transiently transfected with hsp27-EcRE×5 MTV-luciferase alone (−) or with expression vectors for rat FAR and/or human RXRα. Reporter activity was assayed after treating cells with or without 50 μM JH III. […]

[4] = tested on: Drosophila G-EcR+USP; experiment: G-EcR+USP / hsp27-EcRE×5 MTV luciferase reporter; format: cell-based; conditions: 50 μM JH III; FIG. 5B
Method: as §2, with “unit. […]” for “unit.”

[5] = biological target: T4, human T3Rβ (Homo sapiens, UniProt P10828); experiment: T3Rβ / TREp×2-TK luciferase reporter; format: cell-based; conditions: 50 μM JH III; FIG. 5B
T4 construct: expressed in transfected cells
T4 sequence (P10828 1-461): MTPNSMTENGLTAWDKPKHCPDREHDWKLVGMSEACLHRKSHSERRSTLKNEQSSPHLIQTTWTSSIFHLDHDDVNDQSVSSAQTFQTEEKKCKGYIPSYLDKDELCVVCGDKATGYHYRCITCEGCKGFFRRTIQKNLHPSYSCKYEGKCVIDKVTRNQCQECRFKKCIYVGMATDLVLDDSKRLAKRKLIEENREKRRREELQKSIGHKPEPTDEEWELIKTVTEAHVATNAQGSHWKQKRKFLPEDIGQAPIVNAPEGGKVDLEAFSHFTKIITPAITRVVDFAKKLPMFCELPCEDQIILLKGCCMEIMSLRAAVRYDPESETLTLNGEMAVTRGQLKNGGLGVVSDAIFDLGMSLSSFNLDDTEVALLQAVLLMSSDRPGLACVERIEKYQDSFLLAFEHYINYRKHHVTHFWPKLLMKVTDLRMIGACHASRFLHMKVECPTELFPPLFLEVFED
Method: as §2, with “unit. […]” for “unit.”

[6] = biological target: T5, human RARα (Homo sapiens, UniProt P10276); experiment: RARα / DR5×2-TK luciferase reporter; format: cell-based; conditions: 50 μM JH III; FIG. 5B
T5 construct: expressed in transfected cells
T5 sequence (P10276 1-462): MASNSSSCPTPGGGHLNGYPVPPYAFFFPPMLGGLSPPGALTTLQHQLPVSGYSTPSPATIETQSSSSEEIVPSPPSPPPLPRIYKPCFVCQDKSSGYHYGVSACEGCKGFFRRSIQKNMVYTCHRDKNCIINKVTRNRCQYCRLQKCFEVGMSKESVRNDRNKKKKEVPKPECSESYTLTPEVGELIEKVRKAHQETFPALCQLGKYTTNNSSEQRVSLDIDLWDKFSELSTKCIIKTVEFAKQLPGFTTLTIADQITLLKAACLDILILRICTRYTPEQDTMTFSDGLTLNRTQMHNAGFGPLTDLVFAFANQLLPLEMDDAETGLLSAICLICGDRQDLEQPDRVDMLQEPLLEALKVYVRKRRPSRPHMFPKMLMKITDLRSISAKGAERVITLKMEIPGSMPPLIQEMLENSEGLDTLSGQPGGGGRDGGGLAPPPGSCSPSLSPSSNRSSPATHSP
Method: as §2, with “unit. […]” for “unit.”

[7] = biological target: T1, FAR-RXRα complex (rat FAR and human RXRα); experiment: hsp27-EcRE×5 MTV-luciferase reporter cotransfection in CV-1 cells expressing FAR and RXRα; format: cell-based; conditions: JH III; parental MTV reporter without EcREs
[8] = tested on: ornithine decarboxylase; conditions: 100 μM; bovine lymphocytes; cited from earlier work

Compound: CC(C)=CCC[C@@H](C)[C@H]1CC[C@@]2(C)C3=C(CC[C@]12C)[C@@]1(C)CC[C@H](O)C(C)(C)[C@@H]1CC3 [lanosterol]
activation of FAR-RXRα (in words) ([1]; 50 μM, FIG. 6A): little or no activation

Compound: CC=C(c1ccc(C(=O)O)cc1)c1cc2c(cc1C)C(C)(C)CCC2(C)C [LG69, (4-{1-3,5,5,8,8-pentamethyl-5,6,7,8-tetrahydro-2-napthalenyl)-1-propenyl}benzoic acid]
activation of FAR-RXRα complex, hsp27 EcRE reporter ([1]; 100 nM LG69): 76 fold

Compound: C[C@H](CCCC(C)(C)O)[C@H]1CC[C@H]2[C@@H]3CC=C4C[C@@H](O)CC[C@]4(C)[C@H]3CC[C@]12C [25-hydroxycholesterol]
activation of FAR-RXRα (in words) ([1]; 10 μM): little or no activation

Compound: COC(=O)/C=C(\C)CC/C=C(\C)CCC1OC1(C)C (stereo not drawn) [JH III, cis-10,11-epoxy-3,7,11-trimethyl-trans-trans-2,6-dodecadienoic acid methyl ester]
induction of luciferase activity ([1]; 50 μM JH III, CV-1 cells expressing both FAR and RXRα, FIG. 5A): 10 fold | activation of FAR-RXRα complex, hsp27 EcRE reporter ([1]; 50 μM JH III): 17 fold | activation of FAR alone [2]: fails to activate | activation of RXRα alone [3]: fails to activate | activation of ecdysone receptor (EcR+USP) [4]: failed to activate | activation of thyroid hormone receptor (T3R) [5]: failed to activate | activation of all-trans retinoic acid receptor (RAR) [6]: failed to activate | activation of FAR-RXR complexes using parental MTV reporter construct lacking the EcREs [7]: failed to activate | antagonism of induction of ornithine decarboxylase by phorbol esters and phytohemagglutinin [8]: can be antagonized

Compound: CC(C)=CCCC(C)=CCCC(C)=CC=O [farnesal]
activation of FAR-RXRα (in words) ([1]; 50 μM, FIG. 6A): weaker activity

activation of FAR-RXRα (in words) ([1]; 50 μM, FIG. 6A): weaker activity
Compound: CC(C)=CCC/C(C)=C/CC/C(C)=C/CC/C(C)=C/CO [geranylgeraniol]

Compound: CC(=O)[C@H]1CC[C@H]2[C@@H]3CC=C4C[C@@H](O)CC[C@]4(C)[C@H]3CC[C@]12C [pregnenolone]
activation of FAR-RXRα (in words) ([1]; 50 μM, FIG. 6A): little or no activation
